Data set [1] concerns P450 enzymes (oxidases) of pollen beetle homogenate. As to the kind of experiment: Oxidase assay: 7-ethoxycoumarin O-deethylation inhibition in pollen beetle homogenate. It counts as biochemical, Meligethes aeneus. The settings on record: 3 μl of 10 mM compound, enzyme plus acetone = 100. The protocol:
The ability of the novel compositions comprising the synergists of Formula (I) to inhibit P450 enzymes, a major mechanism conferring resistance to xenobiotics, was measured using pollen beetle homogenate.
Approximately 50 non-sexed adult pollen beetle from each population were homogenised on ice in 1 ml 0.1 M sodium phosphate buffer, pH 7.6, containing, 1 mM EDTA, 1 mM DTT, 1 mM PTU, 1 mM PMSF and centrifuged at 10 000×g for 10 min. The resulting supernatant was used as the enzyme source.
The O-deethylation inhibition by compounds of Example 2 or 3 was measured using 7-ethoxycoumarin (7-EC) according to Ullrich and Weber (Ullrich V and Weber P, The O-dealkylation of 7-ethoxycoumarin by liver microsomes. Z Physiol Chem 353: 1171-1177 (1972)) and adapted to the microplate format as described by DeSousa (De Sousa G, Cuany A, Brun A, Amichot M, Rahmani R, Berge J B, A microfluorometric method for measuring ethoxycoumarin-O-deethylase activity on individual Drosophila melanogaster abdomens: interest for screening resistance in insect populations Analyt. Biochem 229: 86-91 (1995)). Briefly, 7-EC was dissolved in ethanol to make a 20 mM stock solution and diluted by the addition of 0.1 M, pH 7.8 sodium phosphate buffer to give a concentration of 0.5 mM. Fifty microliters of pollen beetle enzyme were added to separate wells of a microplate, followed by the addition of 3 μl 10 mM of either compounds of Example 2 or 3 or acetone only. After 10 min incubation in room temperature, 80 μl 0.5 mM 7-EC was added following by another 5 min at 30° C. The reaction initiated by the addition of 10 μl 9.6 mM NADPH in 0.1 M sodium phosphate, pH 7.8. Enzyme activity was measured in a Victor^2 1420 multilabel counter (Wallac, Milton Keynes, UK) for 60 min with readings taken every 5 min, using an excitation wavelength of 370 nm and an emission wavelength of 460 nm. All assays were performed in triplicate.
The ability of the composition comprising the compounds of Examples 2 and 3 to inhibit oxidases derived from the 3 different pollen beetle populations is presented in Table 7.

The subject of data set [2] is pollen beetle, Meligethes aeneus. As to the kind of experiment: Discriminating dose bioassay: α-cypermethrin in mixture with synergist. The settings on record: for % Mortality: 24 h. Type of data set: in vivo. Here is the method: Two pyrethroid resistant populations originating from two different areas in Poland ‘Rogalin'and lebork’ were collected in July 2008. A putative susceptible population, UK population, was also collected in July 2008 in Hertfordshire, UK. All populations were collected from oilseed rape contained adults only and were kept at room temperature before assays were performed.
Bioassays incorporating the compounds (Compound of Example 2 and Compound of Example 3) dissolved in acetone, were carried out using a diagnostic concentration of α-cypermethrin derived from the above full dose response bioassays in a mixture of 0.01 g L^−1 of the compounds. The concentration of α-cypermethrin used for the discriminating dose bioassays was 0.3 ppm α-cypermethrin for the two polish populations, Rogalin and Lebork and 0.03 ppm α-cypermethrin for UK population. Vials treated with the compounds only, dissolved in acetone and acetone only were used as controls. Ten to 15 replicates were used for each treatment depending on insect numbers within the population. Compounds concentrations chosen conferred no mortality in preliminary bioassays.
Treated vials including the pollen beetles were stored in constant environment facilities at 18±2° C. and 16L: 8D. All bioassays were scored at an endpoint of 24 h after exposure to the insecticide. Insects incapable of coordinated movement (after gentle touching with a pencil brush if necessary) were scored as dead.

Consider `CC#CCOc1cc2c(cc1CCC)OCO2` [Example 3, 5-(but-2-ynyloxy)-6-propyl-benzo[1.3]dioxole], for which the figures for the “Inhibition of 7-ethoxycoumarin O-deethylation (%)” value in data set [1] (Lebork homogenate), in data set [1] (Rogalin homogenate) and in data set [1] (UK population homogenate) were −2.24%, 27.6% and 10.4%, respectively. For the same compound, the “% Mortality” value in data set [2] (Lebork, 0.3 ppm α-cypermethrin in mixture with 0.01 g L^−1 synergist) is reported as 86.53%; in data set [2] (Rogalin, 0.3 ppm α-cypermethrin in mixture with 0.01 g L^−1 synergist), 97.06%; in data set [2] (UK population, 0.03 ppm α-cypermethrin in mixture with 0.01 g L^−1 synergist), 68.78%. In addition, in data set [2] (Rogalin and Lebork, 0.3 ppm α-cypermethrin in mixture with 0.01 g L^−1 synergist), the “Mortality” value was “around 85%”. Also, the “Mortality with the compound only” value in data set [2] (synergist only, without α-cypermethrin (data not shown)) is on record as “No mortality”.

Values taken from patent US8809389B2, “Substituted alkynyl phenoxy compounds as new synergists in pesticidal compositions” (Endura S.p.A., priority 2009, dated 2014).
